Results published in patent US9040533B2, “Oxime-substituted-quinoxaline-type piperidine compounds as ORL-1 modulators” (priority 2012, dated 2015).

Assays:
Test in all cases: biochemical
CYP1A2 = target: T1, CYP1A2 (Homo sapiens, UniProt P05177)
T1 sequence (P05177 1-516): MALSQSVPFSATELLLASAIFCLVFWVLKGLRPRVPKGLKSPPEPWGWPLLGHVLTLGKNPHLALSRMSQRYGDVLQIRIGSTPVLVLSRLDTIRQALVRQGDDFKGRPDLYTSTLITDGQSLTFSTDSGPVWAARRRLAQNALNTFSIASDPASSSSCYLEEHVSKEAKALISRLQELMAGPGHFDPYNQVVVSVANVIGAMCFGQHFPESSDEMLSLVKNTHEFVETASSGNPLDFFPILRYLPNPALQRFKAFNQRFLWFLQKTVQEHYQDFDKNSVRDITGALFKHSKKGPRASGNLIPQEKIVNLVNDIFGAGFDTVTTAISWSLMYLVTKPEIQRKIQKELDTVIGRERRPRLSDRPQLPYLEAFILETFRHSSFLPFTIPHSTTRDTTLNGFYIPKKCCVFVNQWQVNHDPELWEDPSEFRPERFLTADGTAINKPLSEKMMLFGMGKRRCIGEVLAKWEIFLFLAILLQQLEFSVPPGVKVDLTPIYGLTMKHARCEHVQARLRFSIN

CYP2C9 = CYP2C9 (Homo sapiens, UniProt P11712)
Sequence of CYP2C9 (P11712 whole entry): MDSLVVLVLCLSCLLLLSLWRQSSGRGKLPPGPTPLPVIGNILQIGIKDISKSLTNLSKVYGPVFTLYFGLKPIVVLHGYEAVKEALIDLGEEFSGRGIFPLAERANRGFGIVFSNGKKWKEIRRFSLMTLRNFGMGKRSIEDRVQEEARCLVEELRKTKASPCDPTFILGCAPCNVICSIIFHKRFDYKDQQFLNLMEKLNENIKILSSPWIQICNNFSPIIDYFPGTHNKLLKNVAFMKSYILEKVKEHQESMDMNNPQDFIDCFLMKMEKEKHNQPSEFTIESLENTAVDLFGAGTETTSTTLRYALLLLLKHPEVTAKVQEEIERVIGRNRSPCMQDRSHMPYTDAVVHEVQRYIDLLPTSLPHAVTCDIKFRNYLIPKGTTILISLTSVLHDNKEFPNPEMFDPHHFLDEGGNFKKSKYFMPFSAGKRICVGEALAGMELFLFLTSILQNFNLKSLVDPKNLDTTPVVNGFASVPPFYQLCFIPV

CYP2C19 = CYP2C19 (Homo sapiens, UniProt P33261)
Sequence of CYP2C19 (P33261 whole entry): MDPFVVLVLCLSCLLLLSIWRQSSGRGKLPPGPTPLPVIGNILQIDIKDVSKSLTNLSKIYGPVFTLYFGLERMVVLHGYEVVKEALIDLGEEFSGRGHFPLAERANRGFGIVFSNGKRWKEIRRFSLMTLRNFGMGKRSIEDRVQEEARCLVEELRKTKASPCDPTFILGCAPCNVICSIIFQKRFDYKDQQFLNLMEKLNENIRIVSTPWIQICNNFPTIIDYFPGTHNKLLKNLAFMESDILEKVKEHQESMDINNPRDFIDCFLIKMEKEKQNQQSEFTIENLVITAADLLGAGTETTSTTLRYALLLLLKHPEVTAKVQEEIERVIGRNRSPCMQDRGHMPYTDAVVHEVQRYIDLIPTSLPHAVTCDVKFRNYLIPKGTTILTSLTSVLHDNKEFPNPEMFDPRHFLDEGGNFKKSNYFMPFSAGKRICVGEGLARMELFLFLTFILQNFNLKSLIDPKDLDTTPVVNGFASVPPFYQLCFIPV

CYP2D6 = CYP2D6 (Homo sapiens, UniProt P10635)
Sequence of CYP2D6 (P10635 whole entry): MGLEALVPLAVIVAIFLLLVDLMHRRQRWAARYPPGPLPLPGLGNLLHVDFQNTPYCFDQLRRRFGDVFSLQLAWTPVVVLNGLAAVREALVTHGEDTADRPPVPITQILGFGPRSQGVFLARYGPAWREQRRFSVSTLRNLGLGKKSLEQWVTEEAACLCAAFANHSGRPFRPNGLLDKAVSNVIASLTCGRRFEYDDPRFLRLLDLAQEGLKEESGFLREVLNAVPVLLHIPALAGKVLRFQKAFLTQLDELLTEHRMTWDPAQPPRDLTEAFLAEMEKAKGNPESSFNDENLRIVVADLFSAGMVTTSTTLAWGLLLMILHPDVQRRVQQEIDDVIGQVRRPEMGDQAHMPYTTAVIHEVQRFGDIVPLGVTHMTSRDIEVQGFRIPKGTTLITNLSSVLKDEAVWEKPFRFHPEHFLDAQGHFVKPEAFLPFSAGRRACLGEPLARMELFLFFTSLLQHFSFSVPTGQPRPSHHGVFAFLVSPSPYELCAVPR

CYP3A4 = CYP3A4 (Homo sapiens, UniProt P08684)
Sequence of CYP3A4 (P08684 whole entry): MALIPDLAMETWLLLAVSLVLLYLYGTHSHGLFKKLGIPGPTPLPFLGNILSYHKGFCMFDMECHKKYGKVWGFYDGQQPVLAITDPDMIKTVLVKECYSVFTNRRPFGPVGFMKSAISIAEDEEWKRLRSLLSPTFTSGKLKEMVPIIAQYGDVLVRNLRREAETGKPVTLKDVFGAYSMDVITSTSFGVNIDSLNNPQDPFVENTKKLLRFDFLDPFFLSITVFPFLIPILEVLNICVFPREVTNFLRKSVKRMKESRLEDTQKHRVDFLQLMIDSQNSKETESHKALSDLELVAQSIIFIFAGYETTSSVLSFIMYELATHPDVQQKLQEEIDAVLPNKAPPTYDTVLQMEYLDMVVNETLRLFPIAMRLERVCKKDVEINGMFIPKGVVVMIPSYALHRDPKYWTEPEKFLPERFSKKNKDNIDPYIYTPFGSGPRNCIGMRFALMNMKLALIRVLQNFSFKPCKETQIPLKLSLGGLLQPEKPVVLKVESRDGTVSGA

Compound | IC50 (CYP1A2) | IC50 (CYP2C9) | IC50 (CYP2C19) | IC50 (CYP2D6) | IC50 (CYP3A4)
O=C(O)CCC(=NOCCO)c1nc2ccccc2n([C@H]2C[C@H]3CCC[C@@H](C2)N3C2CC3CCCC(C3)C2)c1=O (stereo partly drawn) [Compound 3, 4-[4-((1R,3R)—(S)-9-Bicyclo[3.3.1]non-3-yl-9-aza-bicyclo[3.3.1]non-3-yl)-3-oxo-3,4-dihydro-quinoxalin-2-yl]-4-(2-hydroxy-ethoxyimino)-butyric acid] | > 20 µM | > 20 µM | > 20 µM | > 20 µM | > 20 µM
CNC(=O)CCC(=NOCC(=O)O)c1nc2ccccc2n([C@H]2C[C@H]3CCC[C@@H](C2)N3C2CC3CCCC(C3)C2)c1=O (stereo partly drawn) [Compound 42, 2-(((1-(4-((1R,1′R,3r,3′R,5S,5′S)-[3,9′-bi(9′-azabicyclo[3.3.1]nonan)]-3′-yl)-3-oxo-3,4-dihydroquinoxalin-2-yl)-4-(methylamino)-4-oxobutylidene)amino)oxy)acetic acid] | > 20 µM | > 20 µM | > 20 µM | > 20 µM | > 20 µM
CCON=C(C(=O)O)c1nc2ccccc2n([C@H]2C[C@H]3CCC[C@@H](C2)N3C2CC3CCCCC(C3)C2)c1=O (stereo partly drawn) [Compound 32, 2-(4-((1R,3R)-9-(bicyclo[4.3.1]decan-8-yl)-9-azabicyclo[3.3.1]nonan-3-yl)-3-oxo-3,4-dihydroquinoxalin-2-yl)-2-(ethoxyimino)acetic acid] | > 20 µM | > 20 µM | > 20 µM | > 20 µM | > 20 µM
CNC(=O)/C(=N\OCC(=O)O)c1nc2ccccc2n([C@H]2C[C@H]3CCC[C@@H](C2)N3C2CC3CCCC(C3)C2)c1=O (stereo partly drawn) [Compound 43] | > 20 µM | > 20 µM | > 20 µM | > 20 µM | > 20 µM
NC(=O)CO/N=C(\CCC(=O)O)c1nc2ccccc2n([C@H]2C[C@H]3CCC[C@@H](C2)N3C2CC3CCCC(C3)C2)c1=O (stereo partly drawn) [Compound 39] | > 20 µM | > 20 µM | > 20 µM | > 20 µM | > 20 µM
CO/N=C(\CCC(=O)O)c1nc2ccccc2n([C@H]2C[C@H]3CCC[C@@H](C2)N3C2CCCCCCCCC2)c1=O [Compound 9, 4-[4-((1R,3R,7S)-9-cyclodecyl-9-aza-bicyclo[3.3.1]non-3-yl)-3-oxo-3,4-dihydro-quinoxalin-2-yl]-4-methoxyimino-butyric acid] | > 20 µM | > 20 µM | > 20 µM | > 20 µM | > 20 µM
CCC1CC2CC(C1)CC(N1[C@@H]3CCC[C@H]1C[C@@H](n1c(=O)c(/C(CCC(=O)O)=N/OCCN(C)C)nc4ccccc41)C3)C2 (stereo partly drawn) [Compound 34] | 16.1 µM | > 20 µM | – | > 20 µM | 17.5 µM
CC[C@@H]1C[C@H]2CC(N3[C@@H]4CCC[C@H]3CC(n3c(=O)c(/C(CCC(=O)O)=N/OCCCN(C)C)nc5ccccc53)C4)C[C@@H](C1)C2 (stereo partly drawn) [Compound 35] | > 20 µM | > 20 µM | – | > 20 µM | > 20 µM
CN(C)C(=O)CON=C(C(=O)O)c1nc2ccccc2n([C@H]2C[C@H]3CCC[C@@H](C2)N3C2CC3CCCC(C3)C2)c1=O (stereo partly drawn) [Compound 63] | > 20 µM | > 20 µM | > 20 µM | > 20 µM | > 20 µM
N#CC(=NOCC(=O)O)c1nc2ccccc2n([C@H]2C[C@H]3CCC[C@@H](C2)N3C2CC3CCCC(C3)C2)c1=O (stereo partly drawn) [Compound 65, 2-((((4-((1R,1′R,3r,3′R,5S,5′S)-[3,9′-bi(9′-azabicyclo[3.3.1]nonan)]-3′-yl)-3-oxo-3,4-dihydroquinoxalin-2-yl)(cyano)methylene)amino)oxy)acetic acid] | > 20 µM | > 20 µM | > 20 µM | > 20 µM | > 20 µM
NC(=O)CO/N=C(\C(N)=O)c1nc2ccccc2n([C@H]2C[C@H]3CCC[C@@H](C2)N3C2CC3CCCCC(C3)C2)c1=O (stereo partly drawn) [Compound 66] | > 20 µM | > 20 µM | > 20 µM | > 20 µM | > 20 µM
NC(=O)CCC(=NOCC(=O)O)c1nc2ccccc2n([C@H]2C[C@H]3CCC[C@@H](C2)N3C2CC3CCCC(C3)C2)c1=O (stereo partly drawn) [Compound 44] | > 20 µM | > 20 µM | > 20 µM | > 20 µM | > 20 µM
CC(C)C(O/N=C(\C(=O)O)c1nc2ccccc2n([C@H]2C[C@H]3CCC[C@@H](C2)N3C2CC3CCCC(C3)C2)c1=O)C(N)=O (stereo partly drawn) [Compound 53] | > 20 µM | > 20 µM | > 20 µM | > 20 µM | > 20 µM
COCCO/N=C(\C(=O)O)c1nc2ccccc2n([C@H]2C[C@H]3CCC[C@@H](C2)N3C2CC3CCCCC(C3)C2)c1=O (stereo partly drawn) [Compound 46] | > 20 µM | > 20 µM | > 20 µM | > 20 µM | > 20 µM
CNC(=O)C(=NOCC(=O)O)c1nc2ccccc2n([C@H]2C[C@H]3CCC[C@@H](C2)N3C2CC3CCCCC(C3)C2)c1=O (stereo partly drawn) [Compound 54] | > 20 µM | > 20 µM | > 20 µM | > 20 µM | > 20 µM
NC(=O)C(=NOCC(=O)O)c1nc2ccccc2n([C@H]2C[C@H]3CCC[C@@H](C2)N3C2CC3CCCCC(C3)C2)c1=O (stereo partly drawn) [Compound 55] | > 20 µM | > 20 µM | > 20 µM | > 20 µM | > 20 µM
NC(=O)CCC(=NOCC(=O)O)c1nc2ccccc2n([C@H]2C[C@H]3CCC[C@@H](C2)N3C2CC3CCCCC(C3)C2)c1=O (stereo partly drawn) [Compound 59] | > 20 µM | > 20 µM | > 20 µM | > 20 µM | > 20 µM
CC(C)O/N=C(\C(=O)O)c1nc2ccccc2n([C@H]2C[C@H]3CCC[C@@H](C2)N3C2CC3CCCCC(C3)C2)c1=O (stereo partly drawn) [Compound 33, 2-(4-((1R,3R)-9-(bicyclo[4.3.1]decan-8-yl)-9-azabicyclo[3.3.1]nonan-3-yl)-3-oxo-3,4-dihydroquinoxalin-2-yl)-2-(isopropoxyimino)acetic acid] | > 20 µM | > 20 µM | > 20 µM | > 20 µM | > 20 µM
CCO/N=C(\CCC(=O)O)c1nc2ccccc2n([C@H]2C[C@H]3CCC[C@@H](C2)N3C2CC3CC(CC)CC(C3)C2)c1=O (stereo partly drawn) [Compound 26] | > 20 µM | > 20 µM | – | > 20 µM | > 20 µM
CC1CC2CC(C1)CC(N1[C@@H]3CCC[C@H]1C[C@@H](n1c(=O)c(/C(CCC(=O)O)=N/OCCCN(C)C)nc4ccccc41)C3)C2 (stereo partly drawn) [Compound 28] | > 20 µM | > 20 µM | – | 3 µM | 6.1 µM
CC[C@@H]1C[C@H]2CC(N3[C@@H]4CCC[C@H]3CC(n3c(=O)c(/C(CCC(=O)O)=N/OC)nc5ccccc53)C4)C[C@@H](C1)C2 (stereo partly drawn) [Compound 25] | > 20 µM | > 20 µM | – | > 20 µM | > 20 µM
CCN(CC)CCO/N=C(\CCC(=O)O)c1nc2ccccc2n(C2C[C@H]3CCC[C@@H](C2)N3C2C[C@@H]3C[C@@H](C)C[C@H](C2)C3)c1=O (stereo partly drawn) [Compound 27] | > 20 µM | > 20 µM | – | 8.7 µM | 8.9 µM
CC1CC2CC(C1)CC(N1[C@@H]3CCC[C@H]1C[C@@H](n1c(=O)c(/C(CCC(=O)O)=N/OCCN(C)C)nc4ccccc41)C3)C2 (stereo partly drawn) [Compound 29] | > 20 µM | > 20 µM | – | 11.6 µM | > 20 µM
